# Measured values from patent US10093670B2, “Azabenzimidazole derivative having AMPK-activating activity” (Shionogi & Co., Ltd., priority 2011, dated 2018).
# Columns and labels:
# human AMPK α1β1γ1 enzyme = molecular target: T1, human AMPK α1β1γ1 enzyme (Homo sapiens, UniProt Q13131+Q9Y478); assay: Evaluation of AMPK activator, Test Example 1 (mobility-shift kinase assay, FL-Peptide 7); format: biochemical; details: for EC150 (compound concentration showing 150% relative to the control (100%)): human AMPK α1β1γ1, 25° C., 2 hours, 0.2 mM ATP final; for Emax: human AMPK α1β1γ1, relative to control (100%), read-out: Emax (maximum rate of increase in activity within the measurement range)
# T1 construct: purchased Carna Biosciences, Inc
# T1 sequence (Q13131 10-559 limits assumed): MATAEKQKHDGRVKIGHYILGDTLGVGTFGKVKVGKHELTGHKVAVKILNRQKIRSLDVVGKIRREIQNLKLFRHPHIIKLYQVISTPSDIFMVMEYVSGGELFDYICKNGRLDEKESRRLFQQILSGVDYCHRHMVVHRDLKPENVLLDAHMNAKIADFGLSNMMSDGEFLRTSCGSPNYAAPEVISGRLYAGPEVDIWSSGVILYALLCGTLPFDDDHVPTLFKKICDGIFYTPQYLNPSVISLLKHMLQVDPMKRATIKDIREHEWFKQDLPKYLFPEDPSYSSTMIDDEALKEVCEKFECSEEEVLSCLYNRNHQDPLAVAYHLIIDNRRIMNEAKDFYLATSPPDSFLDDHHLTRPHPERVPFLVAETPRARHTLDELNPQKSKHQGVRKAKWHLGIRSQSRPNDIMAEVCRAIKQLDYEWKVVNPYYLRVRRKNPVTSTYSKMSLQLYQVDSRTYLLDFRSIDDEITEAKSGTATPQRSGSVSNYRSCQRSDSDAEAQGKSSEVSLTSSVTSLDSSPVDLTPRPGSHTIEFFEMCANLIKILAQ
# T1 sequence (Q9Y478 whole entry): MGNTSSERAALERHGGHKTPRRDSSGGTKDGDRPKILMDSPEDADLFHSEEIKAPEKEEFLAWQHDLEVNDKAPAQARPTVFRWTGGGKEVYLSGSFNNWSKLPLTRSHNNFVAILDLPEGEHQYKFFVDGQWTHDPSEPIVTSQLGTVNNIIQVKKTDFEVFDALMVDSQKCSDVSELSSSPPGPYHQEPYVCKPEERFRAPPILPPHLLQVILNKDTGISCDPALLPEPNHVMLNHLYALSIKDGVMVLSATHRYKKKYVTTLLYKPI
# T1 sequence (P54619 whole entry partner): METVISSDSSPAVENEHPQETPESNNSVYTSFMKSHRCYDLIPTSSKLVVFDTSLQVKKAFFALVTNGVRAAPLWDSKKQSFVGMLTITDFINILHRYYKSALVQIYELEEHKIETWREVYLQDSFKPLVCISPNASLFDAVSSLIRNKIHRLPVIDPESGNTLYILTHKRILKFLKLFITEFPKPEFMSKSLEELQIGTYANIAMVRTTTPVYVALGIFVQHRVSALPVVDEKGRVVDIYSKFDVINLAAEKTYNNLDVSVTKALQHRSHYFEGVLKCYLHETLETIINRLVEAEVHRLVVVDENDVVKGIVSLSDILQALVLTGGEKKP
# Protocol: The obtained liquid was left to stand for 10 minutes.
# The obtained liquid was allowed to react at 25° C. for 2 hours, and 10 μl of 20 mM EDTA was then added thereto to stop the reaction.
# (§1) To detect phosphorylated fluorescent substrates, the reaction liquid was applied to a measuring device, LabChip EZ Reader II manufactured by Caliper Life Science, Inc., for detecting fluorescence by using differences in mobility due to differences in charge. The setting conditions for the device were pressure, −1.5 PSI; upstream voltage, −2250 V; downstream voltage, −400 V; post sample buffer sip time, 40 seconds; final delay, 120 seconds; and peak order, Product First.
# (§2) A conversion rate was calculated from the peak heights of the resulting substrate and product. The conversion rate when not containing a compound was used as a control, and a concentration dependent curve was made by plotting the rate of increase in activity to the control at each concentration of a compound.
# Human AMPK α2β2γ1 = molecular target: T2, Human AMPK α2β2γ1 (Homo sapiens, UniProt O43741+P54646); assay: Evaluation of AMPK activator, Test Example 2 (CaMKK2-phosphorylated enzyme, mobility-shift kinase assay); format: biochemical; details: for EC150 (compound concentration showing 150% relative to the control (100%)): human AMPK α2β2γ1 phosphorylated by CaMKK2, 25° C., 2 hours; for Emax: human AMPK α2β2γ1 phosphorylated by CaMKK2, relative to control (100%), read-out: Emax (maximum rate of increase in activity within the measurement range)
# T2 construct: The full length cDNAs of human AMPK β2 (NM_005399.3) and human AMPK α2 (NM_006252.3) were inserted; the full length cDNA of human AMPK γ1 (NM_002733.3) had been inserted into pET28b(+); 6xHis (N); made in house; host or cells: Escherichia coli BL21 CodonPlus (DE3)-RIL (AMPK); BL21 Star (DE3) (CaMKKβ)
# T2 sequence (P54646 whole entry): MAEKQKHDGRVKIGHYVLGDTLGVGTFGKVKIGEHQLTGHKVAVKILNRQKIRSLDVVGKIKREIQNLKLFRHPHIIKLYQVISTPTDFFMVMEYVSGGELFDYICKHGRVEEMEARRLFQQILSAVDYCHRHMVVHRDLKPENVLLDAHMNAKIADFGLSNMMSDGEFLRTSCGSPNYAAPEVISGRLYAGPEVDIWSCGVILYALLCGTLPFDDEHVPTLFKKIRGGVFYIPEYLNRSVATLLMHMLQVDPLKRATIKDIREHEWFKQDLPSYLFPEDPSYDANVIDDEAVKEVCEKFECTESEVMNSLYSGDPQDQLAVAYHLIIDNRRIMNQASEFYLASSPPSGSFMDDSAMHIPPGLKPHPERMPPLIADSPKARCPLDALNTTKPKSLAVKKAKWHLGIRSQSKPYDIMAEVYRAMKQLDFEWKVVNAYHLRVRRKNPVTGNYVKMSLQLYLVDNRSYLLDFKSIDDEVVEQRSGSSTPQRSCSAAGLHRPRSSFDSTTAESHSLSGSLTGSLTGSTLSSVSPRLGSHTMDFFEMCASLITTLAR
# T2 sequence (O43741 whole entry): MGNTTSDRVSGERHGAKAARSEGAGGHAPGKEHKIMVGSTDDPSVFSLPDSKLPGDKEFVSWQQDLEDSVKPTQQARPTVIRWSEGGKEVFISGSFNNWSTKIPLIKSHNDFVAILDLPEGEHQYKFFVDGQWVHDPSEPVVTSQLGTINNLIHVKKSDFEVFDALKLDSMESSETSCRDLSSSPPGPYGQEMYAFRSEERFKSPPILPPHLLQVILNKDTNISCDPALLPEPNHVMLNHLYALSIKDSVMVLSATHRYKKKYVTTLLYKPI
# T2 sequence (P54619 whole entry partner): as the sequence (P54619 whole entry partner) above
# Protocol: The full length cDNAs of human AMPK β2 (NM_005399.3) and human AMPK α2 (NM_006252.3) were inserted into the MCS1 and MCS2 of the pETDuet-1 vector to prepare a human AMPK β2 and human AMPK α2 (6× His tag at the 5′ terminus) expressing plasmid. The plasmid was contransfected with an expression plasmid, in which the full length cDNA of human AMPK γ1 (NM_002733.3) had been inserted into pET28b(+), into BL21 CodonPlus (DE3)-RIL to obtain an expression strain. The expression strain was cultured in TB medium, followed by induction with 0.5 mM IPTG, and cultured at 25° C. for 3 hours and then harvested. After ultrasonication, supernatant was collected and applied to Histrap FF column (GE) and RESOUECE Q column (GE) to prepare 12.5 mg of purified sample containing three types of subunit from 1.8 L of broth.
# An expression vector, in which the full length cDNA of human CAMKK β (NM_172226.1) had been inserted into pGEX-6P-3, was transfected into BL21 Star (DE3). The expression strain was cultured in TB medium, followed by induction with 0.5 mM IPTG, and cultured at 25° C. for 3 hours and then harvested. After ultrasonication, supernatant was collected and applied to GSTrap FF column (GE) to prepare 14 mg of GST-fused CAMKK β from 720 ml of broth.
# Evaluation Method of an Activator for AMP-activated Protein Kinase (AMPK) (Test Example 2)
# Thus, phosphorylation treatment was carried out as pretreatment.
# Human AMPK α2β2γ1 in an amount to give a conversion rate of approximately 10% by reaction for 2 hours, and CaMKK2 in an amount capable of sufficiently imparting activity to AMPK for one hour were mixed in a buffer solution consisting of a 50 mM HEPES-NaOH buffer solution (pH 7.0), 100 mM NaCl, 5 mM magnesium chloride, 0.1% bovine serum albumin, 0.2 mM sodium orthovanadate(V), 1 mM ethylene glycol-bis(2-aminoethyl ether)-N,N,N′,N′-tetraacetic acid (EGTA), 5 mM disodium β-glycerophosphate, 1 mM dithiothreitol and 0.2 mM ATP, and the obtained liquid was left to stand at 25° C. for 1 to 1.5 hours to sufficiently phosphorylate AMPK.
# After that, to the enzyme liquid, which had been subjected to phosphorylation treatment, a compound dissolved in DMSO was added so as to have a 1% DMSO concentration. The obtained liquid was left to stand for 10 minutes.
# To the liquid, a substrate solution consisting of a 50 mM HEPES-NaOH buffer solution (pH 7.0), 100 mM NaCl, 10 mM magnesium chloride, 0.1% bovine serum albumin, 0.2 mM sodium orthovanadate(V), 1 mM ethylene glycol-bis(2-aminoethyl ether)-N,N,N′,N′-tetraacetic acid (EGTA), 5 mM disodium β-glycerophosphate, 2 mM dithiothreitol, 0.4 mM ATP and 3 μM FL-Peptide 7 (manufactured by Caliper Life Sciences, Inc.) was added in equal amount (10 μl in total). The obtained liquid was allowed to react at 25° C. for 2 hours, and 10 μl of 20 mM EDTA was then added thereto to stop the reaction.
# as §1, §2
Structure (SMILES),EC150 (compound concentration showing 150% relative to the control (100%)) (human AMPK α1β1γ1 enzyme),Emax (human AMPK α1β1γ1 enzyme),EC150 (compound concentration showing 150% relative to the control (100%)) (Human AMPK α2β2γ1),Emax (Human AMPK α2β2γ1)
CN(C)C(=O)[C@]1(O)CC[C@@H](Oc2nc3nc(-c4ccc(C5=CCC(C(=O)O)CC5)cc4)c(Cl)cc3[nH]2)CC1 (some centres unmarked) [Compound I-3-54],270 nM,201%,2.2 nM,373%
CC(=O)NC1CC=C(c2ccc(-c3nc4nc(O[C@H]5CC[C@H](CC(=O)O)CC5)[nH]c4cc3Cl)cc2)CC1 (some centres unmarked) [Compound I-2-76],14 nM,232%,85 nM,175%
CC(=O)NC1CC=C(c2ccc(-c3nc4nc(O[C@H]5CC[C@H](C(C)(C)CO)CC5)[nH]c4cc3Cl)cc2)CC1 (some centres unmarked) [Compound I-3-86],23 nM,277%,11 nM,259%
CN(C)C(=O)[C@H]1C[C@@H](Oc2nc3nc(-c4ccc(C5=CCC(C(=O)O)CC5)cc4)c(Cl)cc3[nH]2)C1 (some centres unmarked) [Compound I-2-129],,276%,,339%
CN(C)C(=O)[C@H]1C[C@@H](Oc2nc3nc(-c4ccc(-c5ccc(C(=O)O)cc5)cc4)c(Cl)cc3[nH]2)C1 [Compound I-3-91],21 nM,287%,,
CC(Oc1nc2nc(-c3ccc(N4CCOCC4)cc3)c(Cl)cc2[nH]1)c1noc(=O)[nH]1 (centres unmarked) [Compound I-1-28],210 nM,231%,,
O=C(c1ccc(-c2ccc(-c3nc4nc(O[C@H]5CC[C@H](C(=O)O)CC5)[nH]c4cc3Cl)cc2)cc1)N1CCC(O)CC1 [Compound I-3-104],21 nM,203%,,
CC(Cc1nc2nc(-c3ccc(N4CCOCC4)cc3)c(Cl)cc2[nH]1)C(=O)O (centres unmarked) [Compound I-1-62],540 nM,228%,,
CC(C)(C(=O)O)[C@H]1CC[C@H](Oc2nc3nc(-c4ccc(-c5ccc(C(N)=O)cc5)cc4)c(Cl)cc3[nH]2)CC1 [Compound I-3-119],1.6 nM,300%,,
CC(=O)N1CC=C(c2ccc(-c3nc4nc(OC5CCC(C(C)(C)C(=O)O)CC5)[nH]c4cc3Cl)cc2)CC1 (centres unmarked) [Compound I-3-39],5.1 nM,286%,,
O=C(O)C[C@H]1CC[C@H](Oc2nc3nc(-c4ccc(C5=CCOCC5)cc4)c(Cl)cc3[nH]2)CC1 [Compound I-2-85],18 nM,255%,,
CN(C)C(=O)N1CC(Oc2nc3nc(-c4ccc(C5=CCC(C(=O)O)CC5)cc4)c(Cl)cc3[nH]2)C1 (centres unmarked) [Compound I-2-71],2400 nM,193%,,
CC(C)(C(=O)O)C1CCC(Oc2nc3nc(-c4ccc(N5CCCC5)cc4)c(Cl)cc3[nH]2)CC1 (centres unmarked) [Compound I-3-44],7.6 nM,275%,,
O=C(O)C[C@H]1CC[C@H](Oc2nc3nc(-c4ccc(N5CCOCC5)cc4)c(Cl)cc3[nH]2)CC1 [Compound I-2-40],51 nM,293%,,
O=C(O)C1CCC(Oc2nc3nc(-c4ccc(N5CCOCC5)cc4)c(Cl)cc3[nH]2)C1 (centres unmarked) [Compound I-3-53],51 nM,261%,,
CS(=O)(=O)N1CCC(Oc2nc3nc(-c4ccc(N5CCOCC5)cc4)c(Cl)cc3[nH]2)CC1 [Compound I-1-32],200 nM,280%,,

Structure (SMILES),EC150 (compound concentration showing 150% relative to the control (100%)) (human AMPK α1β1γ1 enzyme),Emax (human AMPK α1β1γ1 enzyme),EC150 (compound concentration showing 150% relative to the control (100%)) (Human AMPK α2β2γ1),Emax (Human AMPK α2β2γ1)
O=C(O)C1(COc2nc3nc(-c4ccc(N5CCOCC5)cc4)c(Cl)cc3[nH]2)CC1 [Compound I-2-116],130 nM,229%,,
O=C(O)[C@H]1CC[C@H](Oc2nc3nc(-c4ccc(-c5ccccc5)cc4)c(Cl)cc3[nH]2)CC1 [Compound I-2-30],650 nM,178%,,
CC(Oc1nc2nc(-c3ccc(N4CCOCC4)cc3)c(Cl)cc2[nH]1)C(N)=O (centres unmarked) [Compound I-1-37],910 nM,228%,,
CC(C)(Sc1nc2nc(-c3ccc(N4CCOCC4)cc3)c(Cl)cc2[nH]1)C(=O)O [Compound I-1-57],140 nM,277%,,
CC(C#N)Oc1nc2nc(-c3ccc(N4CCOCC4)cc3)c(Cl)cc2[nH]1 (centres unmarked) [Compound I-1-27],310 nM,226%,,
CC(=O)N1CC=C(c2ccc(-c3nc4nc(OC5CCC(C(C)(C)CO)CC5)[nH]c4cc3Cl)cc2)CC1 (centres unmarked) [Compound I-3-92],23 nM,303%,,
CN(CCO)C(=O)N1CCC(Oc2nc3nc(-c4ccc(C5=CCC(C(=O)O)CC5)cc4)c(Cl)cc3[nH]2)CC1 (centres unmarked) [Compound I-3-2],1.4 nM,182%,,
O=C(O)C1([C@]2(O)CC[C@@H](Oc3nc4nc(-c5ccc(N6CCOCC6)cc5)c(Cl)cc4[nH]3)CC2)CCC1 [Compound I-3-123],18 nM,243%,,
CC(C)(C(=O)O)[C@H]1CC[C@H](Oc2nc3nc(-c4ccc(-c5ccc(C(=O)N6CCOCC6)cc5)cc4)c(Cl)cc3[nH]2)CC1 [Compound I-3-108],8.2 nM,291%,,
CC(=O)NC1CCN(c2ccc(-c3nc4nc(OC5CCC(C(C)(C)C(=O)O)CC5)[nH]c4cc3Cl)cc2)CC1 (centres unmarked) [Compound I-3-65],24 nM,233%,,
CN1CCC(Oc2nc3nc(-c4ccc(N5CCOCC5)cc4)c(Cl)cc3[nH]2)CC1 [Compound I-1-25],3100 nM,226%,,
CC(C)C(Oc1nc2nc(-c3ccc(N4CCOCC4)cc3)c(Cl)cc2[nH]1)C(=O)O (centres unmarked) [Compound I-3-27],280 nM,228%,,
CN(C)C(=O)[C@H]1C[C@@H](Oc2nc3nc(-c4ccc(C5=CCC(C(=O)O)CC5)cc4F)c(Cl)cc3[nH]2)C1 (some centres unmarked) [Compound I-3-3],19 nM,271%,,
CC(Oc1nc2nc(-c3ccc(N4CCOCC4)cc3)c(Cl)cc2[nH]1)C(C)(C)C(=O)O (centres unmarked) [Compound I-2-121],160 nM,258%,,
CC(C)(COc1nc2nc(-c3ccc(N4CCOCC4)cc3)c(Cl)cc2[nH]1)C(=O)O [Compound I-2-109],250 nM,212%,,
